# Target: α-glucosidase (Saccharomyces cerevisiae, UniProt P53341)
# Test: In vitro α-glucosidase inhibition assay (p-nitrophenyl glucopyranoside substrate)
# Assay type: biochemical
# Conditions: not given
# Method: The reaction was initiated by the addition of 10 μL of 0.5mM substrate(p-nitrophenyl glucopyranoside, Sigma Inc.). […] All experiments were carried out in triplicates (mean ± SEM, n=3).
# Sequence of α-glucosidase (P53341 whole entry): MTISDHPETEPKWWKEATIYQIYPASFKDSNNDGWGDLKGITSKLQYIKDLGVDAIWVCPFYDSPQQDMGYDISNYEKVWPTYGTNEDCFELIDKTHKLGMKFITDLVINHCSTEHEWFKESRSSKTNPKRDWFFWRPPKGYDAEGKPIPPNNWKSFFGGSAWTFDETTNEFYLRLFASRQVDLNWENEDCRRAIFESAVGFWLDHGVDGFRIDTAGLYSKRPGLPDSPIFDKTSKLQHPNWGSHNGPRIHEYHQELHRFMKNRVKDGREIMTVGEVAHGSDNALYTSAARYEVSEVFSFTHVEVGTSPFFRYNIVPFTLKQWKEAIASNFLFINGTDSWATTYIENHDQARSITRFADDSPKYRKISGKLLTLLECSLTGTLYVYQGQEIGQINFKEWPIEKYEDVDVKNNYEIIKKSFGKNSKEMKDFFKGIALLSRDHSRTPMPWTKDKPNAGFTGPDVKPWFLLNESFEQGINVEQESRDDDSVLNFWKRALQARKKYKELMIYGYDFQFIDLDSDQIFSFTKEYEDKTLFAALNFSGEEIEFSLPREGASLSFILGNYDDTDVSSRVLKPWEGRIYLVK
row,α-glucosidase inhibitory activity (in words),Compound
1,no inhibitory activity,"O=C(Cc1ccc(O)c(O)c1)NN=Cc1c(Cl)cccc1Cl [Compound 22, N'-(2,6-dichlorobenzylidene)-2-(3,4-dihydroxyphenyl)acetohydrazide]"

# Same assay, conditions: test compound 0.5mM; read-out: Percent Inhibition (0.5mM)
row,inhibition at 500 µM,Compound
1,72%,"O=C(Cc1ccc(O)c(O)c1)NN=Cc1cccc2ccccc12 [Compound 17, 2-(3,4-dihydroxyphenyl)-N'-(naphthalen-1-ylmethylene)acetohydrazide]"
2,83.3%,"CCOc1cc(C=NNC(=O)Cc2ccc(O)c(O)c2)ccc1O [Compound 9, 2-(3,4-dihydroxyphenyl)-N'-(3-ethoxy-4-hydroxybenzylidene)acetohydrazide]"
3,92.8%,"CN(C)c1ccc(C=NNC(=O)Cc2ccc(O)c(O)c2)cc1 [Compound 15, (3,4-dihydroxyphenyl)-N'-(4-(dimethylamino)benzylidene)acetohydrazide]"
4,84.4%,"O=C(Cc1ccc(O)c(O)c1)NN=Cc1cccc(Cl)c1 [Compound 20, N'-(3-chlorobenzylidene)-2-(3,4-dihydroxyphenyl)acetohydrazide]"
5,96.7%,"COc1ccccc1C=NNC(=O)Cc1ccc(O)c(O)c1 [Compound 12, 2-(3,4-dihydroxyphenyl)-N'-(2-methoxybenzylidene)acetohydrazide]"
6,78.2%,"O=C(Cc1ccc(O)c(O)c1)NN=Cc1cccc([N+](=O)[O-])c1 [Compound 25, 2-(3,4-dihydroxyphenyl)-N'-(3-nitrobenzylidene)acetohydrazide]"
7,90.4%,"O=C(Cc1ccc(O)c(O)c1)NN=Cc1ccc(O)cc1 [Compound 2, 2-(3,4-dihydroxyphenyl)-N'-(4-hydroxybenzylidene)acetohydrazide]"
8,95.7%,"O=C(Cc1ccc(O)c(O)c1)NN=Cc1ccc(O)cc1O [Compound 4, N'-(2,4-dihydroxybenzylidene)-2-(3,4-dihydroxyphenyl)acetohydrazide]"
9,92.2%,"COc1ccc(C=NNC(=O)Cc2ccc(O)c(O)c2)cc1OC [Compound 14, 2-(3,4-dihydroxyphenyl)-N'-(3,4-dimethoxybenzylidene)acetohydrazide]"
10,77.5%,"Cc1ccc(C=NNC(=O)Cc2ccc(O)c(O)c2)cc1O [Compound 11, 2-(3,4-dihydroxyphenyl)-N'-(3-hydroxy-4-methylbenzylidene)acetohydrazide]"
11,84.1%,"Cc1ccc(C=NNC(=O)Cc2ccc(O)c(O)c2)cc1 [Compound 16, 2-(3,4-dihydroxyphenyl)-N'-(4-methylbenzylidene)acetohydrazide]"
12,82.7%,"O=C(Cc1ccc(O)c(O)c1)NN=Cc1ccccc1[N+](=O)[O-] [Compound 24, 2-(3,4-dihydroxyphenyl)-N'-(2-nitrobenzylidene)acetohydrazide]"
13,86.3%,"O=C(Cc1ccc(O)c(O)c1)NN=Cc1ccccc1O [Compound 1, (3,4-dihydroxyphenyl)-N'-(2-hydroxybenzylidene)acetohydrazide]"
14,85.3%,"O=C(Cc1ccc(O)c(O)c1)NN=Cc1ccccc1Cl [Compound 18, N'-(2-chlorobenzylidene)-2-(3,4-dihydroxyphenyl)acetohydrazide]"
15,91.7%,"COc1cccc(C=NNC(=O)Cc2ccc(O)c(O)c2)c1O [Compound 7, 2-(3,4-dihydroxyphenyl)-N'-(2-hydroxy-3-methoxybenzylidene)acetohydrazide]"
16,91%,"COc1ccc(C=NNC(=O)Cc2ccc(O)c(O)c2)c(O)c1 [Compound 8, 2-(3,4-dihydroxyphenyl)-N'-(2-hydroxy-4-methoxybenzylidene)acetohydrazide]"
17,95.2%,"COc1ccc(C=NNC(=O)Cc2ccc(O)c(O)c2)cc1 [Compound 13, 2-(3,4-dihydroxyphenyl)-N'-(4-methoxybenzylidene)acetohydrazide]"
18,86.4%,"COc1cc(C=NNC(=O)Cc2ccc(O)c(O)c2)ccc1O [Compound 6, 2-(3,4-dihydroxyphenyl)-N'-(4-hydroxy-3-methoxybenzylidene)acetohydrazide]"
19,79.4%,"O=C(Cc1ccc(O)c(O)c1)NN=Cc1ccc(Cl)cc1 [Compound 19, N'-(4-chlorobenzylidene)-2-(3,4-dihydroxyphenyl)acetohydrazide]"
20,96.1%,"O=C(Cc1ccc(O)c(O)c1)NN=Cc1ccc(O)c(O)c1O [Compound 5, 2-(3,4-dihydroxyphenyl)-N'-(2,3,4-trihydroxybenzylidene)acetohydrazide]"
21,81.9%,"CCOc1ccc(C=NNC(=O)Cc2ccc(O)c(O)c2)c(O)c1 [Compound 10, 2-(3,4-dihydroxyphenyl)-N'-(4-ethoxy-2-hydroxybenzylidene)acetohydrazide]"
22,91.3%,"O=C(Cc1ccc(O)c(O)c1)NN=Cc1ccc(O)c(O)c1 [Compound 3, N'-(3,4-dihydroxybenzylidene)-2-(3,4-dihydroxyphenyl)acetohydrazide]"
23,80.9%,"O=C(Cc1ccc(O)c(O)c1)NN=Cc1ccc([N+](=O)[O-])cc1 [Compound 23, 2-(3,4-dihydroxyphenyl)-N'-(4-nitrobenzylidene)acetohydrazide]"

# System: not given
# Test: not given
# Conditions: not given
row,melting point,Compound
1,210 °C,"O=C(Cc1ccc(O)c(O)c1)NN=Cc1cccc2ccccc12 [Compound 17, 2-(3,4-dihydroxyphenyl)-N'-(naphthalen-1-ylmethylene)acetohydrazide]"
2,184 °C,"CCOc1cc(C=NNC(=O)Cc2ccc(O)c(O)c2)ccc1O [Compound 9, 2-(3,4-dihydroxyphenyl)-N'-(3-ethoxy-4-hydroxybenzylidene)acetohydrazide]"
3,203 °C,"CN(C)c1ccc(C=NNC(=O)Cc2ccc(O)c(O)c2)cc1 [Compound 15, (3,4-dihydroxyphenyl)-N'-(4-(dimethylamino)benzylidene)acetohydrazide]"
4,196 °C,"O=C(Cc1ccc(O)c(O)c1)NN=Cc1cccc(Cl)c1 [Compound 20, N'-(3-chlorobenzylidene)-2-(3,4-dihydroxyphenyl)acetohydrazide]"
5,190 to 193 °C,"COc1ccccc1C=NNC(=O)Cc1ccc(O)c(O)c1 [Compound 12, 2-(3,4-dihydroxyphenyl)-N'-(2-methoxybenzylidene)acetohydrazide]"
6,206 °C,"O=C(Cc1ccc(O)c(O)c1)NN=Cc1cccc([N+](=O)[O-])c1 [Compound 25, 2-(3,4-dihydroxyphenyl)-N'-(3-nitrobenzylidene)acetohydrazide]"
7,156 °C,"O=C(Cc1ccc(O)c(O)c1)NN=Cc1ccco1 [Compound 27, 2-(3,4-dihydroxyphenyl)-N'-(furan-2-ylmethylene)acetohydrazide]"
8,210 °C,"O=C(Cc1ccc(O)c(O)c1)NN=Cc1ccc(O)cc1 [Compound 2, 2-(3,4-dihydroxyphenyl)-N'-(4-hydroxybenzylidene)acetohydrazide]"
9,198 °C,"O=C(Cc1ccc(O)c(O)c1)NN=Cc1ccc(O)cc1O [Compound 4, N'-(2,4-dihydroxybenzylidene)-2-(3,4-dihydroxyphenyl)acetohydrazide]"
10,210 °C,"COc1ccc(C=NNC(=O)Cc2ccc(O)c(O)c2)cc1OC [Compound 14, 2-(3,4-dihydroxyphenyl)-N'-(3,4-dimethoxybenzylidene)acetohydrazide]"
11,210 °C,"Cc1ccc(C=NNC(=O)Cc2ccc(O)c(O)c2)cc1O [Compound 11, 2-(3,4-dihydroxyphenyl)-N'-(3-hydroxy-4-methylbenzylidene)acetohydrazide]"
12,201 °C,"Cc1ccc(C=NNC(=O)Cc2ccc(O)c(O)c2)cc1 [Compound 16, 2-(3,4-dihydroxyphenyl)-N'-(4-methylbenzylidene)acetohydrazide]"
13,204 °C,"O=C(Cc1ccc(O)c(O)c1)NN=Cc1ccccc1[N+](=O)[O-] [Compound 24, 2-(3,4-dihydroxyphenyl)-N'-(2-nitrobenzylidene)acetohydrazide]"
14,164 °C,"O=C(Cc1ccc(O)c(O)c1)NN=Cc1ccccc1O [Compound 1, (3,4-dihydroxyphenyl)-N'-(2-hydroxybenzylidene)acetohydrazide]"
15,164 °C,"O=C(Cc1ccc(O)c(O)c1)NN=Cc1ccccc1Cl [Compound 18, N'-(2-chlorobenzylidene)-2-(3,4-dihydroxyphenyl)acetohydrazide]"
16,204 °C,"O=Cc1ccc(C=NNC(=O)Cc2ccc(O)c(O)c2)cc1 [Compound 26, 2-(3,4-dihydroxyphenyl)-N'-(4-formylbenzylidene)acetohydrazide]"
17,204 °C,"COc1cccc(C=NNC(=O)Cc2ccc(O)c(O)c2)c1O [Compound 7, 2-(3,4-dihydroxyphenyl)-N'-(2-hydroxy-3-methoxybenzylidene)acetohydrazide]"
18,206 °C,"COc1ccc(C=NNC(=O)Cc2ccc(O)c(O)c2)c(O)c1 [Compound 8, 2-(3,4-dihydroxyphenyl)-N'-(2-hydroxy-4-methoxybenzylidene)acetohydrazide]"
19,198 °C,"CSc1ccc(C=NNC(=O)Cc2ccc(O)c(O)c2)cc1 [Compound 28, 2-(3,4-dihydroxyphenyl)-N'-(4-(methylthio)benzylidene)acetohydrazide]"
20,198 °C,"COc1ccc(C=NNC(=O)Cc2ccc(O)c(O)c2)cc1 [Compound 13, 2-(3,4-dihydroxyphenyl)-N'-(4-methoxybenzylidene)acetohydrazide]"
21,189 °C,"COc1cc(C=NNC(=O)Cc2ccc(O)c(O)c2)ccc1O [Compound 6, 2-(3,4-dihydroxyphenyl)-N'-(4-hydroxy-3-methoxybenzylidene)acetohydrazide]"
22,198 °C,"O=C(Cc1ccc(O)c(O)c1)NN=Cc1ccc(Cl)cc1 [Compound 19, N'-(4-chlorobenzylidene)-2-(3,4-dihydroxyphenyl)acetohydrazide]"
23,212 °C,"O=C(Cc1ccc(O)c(O)c1)NN=Cc1ccc(O)c(O)c1O [Compound 5, 2-(3,4-dihydroxyphenyl)-N'-(2,3,4-trihydroxybenzylidene)acetohydrazide]"
24,164 °C,"CCOc1ccc(C=NNC(=O)Cc2ccc(O)c(O)c2)c(O)c1 [Compound 10, 2-(3,4-dihydroxyphenyl)-N'-(4-ethoxy-2-hydroxybenzylidene)acetohydrazide]"
25,212 °C,"O=C(Cc1ccc(O)c(O)c1)NN=Cc1ccc(O)c(O)c1 [Compound 3, N'-(3,4-dihydroxybenzylidene)-2-(3,4-dihydroxyphenyl)acetohydrazide]"
26,201 °C,"O=C(Cc1ccc(O)c(O)c1)NN=Cc1ccc([N+](=O)[O-])cc1 [Compound 23, 2-(3,4-dihydroxyphenyl)-N'-(4-nitrobenzylidene)acetohydrazide]"
27,262 °C,"O=C(Cc1ccc(O)c(O)c1)NN=Cc1c(Cl)cccc1Cl [Compound 22, N'-(2,6-dichlorobenzylidene)-2-(3,4-dihydroxyphenyl)acetohydrazide]"

# From PMC11102520, “Design, synthesis, molecular docking study, and α-glucosidase inhibitory evaluation of novel hydrazide–hydrazone derivatives of 3,4-dihydroxyphenylacetic acid” (Scientific Reports, 2024)
